# Laboratory results published in publication PMC4171615, “Discovery of selective inhibitors of Glutaminase-2, which inhibit mTORC1, activate autophagy and inhibit proliferation in cancer cells” (Oncotarget, 2014).
# Positions count from the first letter of the chain named.
# Columns and labels:
# [1] = biological target: T1, KGA_D520K (Homo sapiens, UniProt O94925, D520K); assay: Glutaminase activity assay, KGA mutant D520K; format: biochemical
# T1 construct: a KGA cDNA fragment of 1644 bp (residues Leu123-Leu669); His-tag (N); made in house; host or cells: Escherichia coli
# T1 sequence (O94925 123-669 D520K): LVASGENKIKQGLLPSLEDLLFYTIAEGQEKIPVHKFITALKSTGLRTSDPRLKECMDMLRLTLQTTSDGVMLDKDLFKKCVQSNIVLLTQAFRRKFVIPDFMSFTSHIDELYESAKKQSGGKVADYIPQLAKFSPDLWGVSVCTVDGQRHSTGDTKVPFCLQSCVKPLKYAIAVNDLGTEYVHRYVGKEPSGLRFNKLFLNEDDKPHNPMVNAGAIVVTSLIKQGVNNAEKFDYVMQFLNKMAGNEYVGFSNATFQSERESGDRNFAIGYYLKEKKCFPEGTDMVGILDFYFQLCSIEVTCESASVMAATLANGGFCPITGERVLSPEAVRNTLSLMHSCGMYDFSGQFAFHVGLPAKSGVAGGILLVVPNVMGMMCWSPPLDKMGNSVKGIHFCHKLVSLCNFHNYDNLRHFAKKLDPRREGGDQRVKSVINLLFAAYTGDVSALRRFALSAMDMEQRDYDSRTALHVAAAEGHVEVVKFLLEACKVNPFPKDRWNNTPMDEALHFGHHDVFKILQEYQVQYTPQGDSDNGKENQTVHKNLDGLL
# Procedure: (§1) Human glutaminase activity was measured using a two-step assay as described previously. A microtiter assay format was used to facilitate the collection of multiple data points. Typically, 10 μl of compound, which was dissolved in DMSO, was added to 80 μl of an initial assay mix (0.1 mM hKGA, 0.2 mM EDTA and 50 mM Tris/acetate, pH 8.6). Samples were incubated at 25°C for 10 min and then 10 μl of 200 mM glutamine were added to the reaction mix. After adding glutamine, the reactions were incubated at 37°C for 60 min and then quenched by the addition of 10 μl of 0.6 M HCl. Subsequently, 100 μl of a second reaction mixture (3.7 units of purified bovine liver glutamate dehydrogenase, 160 mM Tris/acetate [pH 9.4], 400 mM hydrazine, 5 mM ADP and 2 mM NAD^+) was added to the stopped first reaction mixture and incubated for 30 min at 25°C. The absorbance at 340 nm was measured using a Wallac Victor2V plate reader (PerkinElmer), fitted with a 340 nm excitation filter. Sample absorbance was measured against a blank, containing no human glutaminase.
# (§2) Site-directed mutagenesis was performed on the pET28a(+)-GAB or pET28a(+)-KGA plasmids using PfuUltra II Fusion HS DNA polymerase (Agilent Technologies) to create the GAB and KGA mutants. […] The sequence alignment was compared with crystal structure of the GAC (PDB code: 3UO9) and the resulting model of GAB was analyzed using the Swiss-PDB server. […]
# [2] = biological target: T2, KGA_ H519Q/D520K (Homo sapiens, UniProt O94925, D520K/H519Q); assay: Glutaminase activity assay, KGA mutant H519Q/D520K; format: biochemical
# T2 construct: a KGA cDNA fragment of 1644 bp (residues Leu123-Leu669); His-tag (N); made in house; host or cells: Escherichia coli
# T2 sequence (O94925 123-669 H519Q/D520K): T1 sequence (O94925 123-669 D520K) with H397Q
# Procedure: as §1, §2
smiles,measurement,setting,value
CCCCCCCCCCCCCC(CC1=CC(=O)C=C(OC)C1=O)OC(C)=O (centres unmarked) [AV-1],IC50,[1],290 ± 30 nM
same,IC50,[2],230 ± 30 nM
